Test results as given in ChEMBL document CHEMBL1201862, “PubChem BioAssay data set” (2004).
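Grown in 96-well plates, cells were treated for 48 hours with each compound at five concentrations. Insufficient inhibition: endpoint recorded as highest concentration tested. GI50: concentration for 50% inhibition of growth.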 Active and inactive are the calls of the source. Cut-off read from the data, not from the text of the source: active = GI50 up to about 1.1 µM and inactive = higher.

Columns and labels:
Assay in all cases: growth of human tumour cells (NCI), 48 h
EKVX = test system: EKVX
HT-29 = test system: HT-29
Malme-3M = test system: Malme-3M
SF-295 = test system: SF-295
MDA-MB-231 = test system: MDA-MB-231
HL-60 = test system: HL-60
U-251 = test system: U-251
DU-145 = test system: DU-145
SF-539 = test system: SF-539
MOLT-4 = test system: MOLT-4
SNB-75 = test system: SNB-75
TK-10 = test system: TK-10
A549 = test system: A549
786-0 = test system: 786-0
PC-3 = test system: PC-3
SNB-19 = test system: SNB-19
RPMI-8226 = test system: RPMI-8226
NCI-H522 = test system: NCI-H522
SF-268 = test system: SF-268
OVCAR-4 = test system: OVCAR-4

Measured: GI50

CCCc1cc(=O)oc2c3c(c4c(c12)OC(C)(C)C=C4)O[C@@H](C)[C@H](C)C3=O
inactive: EKVX 12.2 µM | HT-29 8.71 µM | Malme-3M 19.5 µM | SF-295 16.6 µM | MDA-MB-231 11.8 µM | HL-60 4.99 µM | U-251 23.4 µM | DU-145 19.5 µM | SF-539 17.7 µM | MOLT-4 6.61 µM | SNB-75 13.6 µM | TK-10 20.7 µM | A549 8.83 µM | 786-0 16.9 µM | PC-3 15.5 µM | SNB-19 17.8 µM | RPMI-8226 3.83 µM | NCI-H522 13.6 µM | SF-268 17.1 µM

O=c1oc2cc(/N=C/c3ccc4c(c3)OCO4)ccc2c2ccccc12
inactive: EKVX 3.66 µM | HT-29 50.9 µM | Malme-3M > 100 µM | SF-295 58.6 µM | MDA-MB-231 77.4 µM | HL-60 > 100 µM | U-251 43.1 µM | DU-145 > 100 µM | SF-539 47 µM | MOLT-4 33.3 µM | SNB-75 15 µM | TK-10 41.4 µM | OVCAR-4 > 100 µM | A549 > 100 µM | 786-0 35 µM | PC-3 > 100 µM | SNB-19 50.2 µM | NCI-H522 56.8 µM | SF-268 61 µM

c1ccc2c(c1)CC1COc3ccccc3C1O2 (stereo not drawn)
inactive: EKVX 48.3 µM | HT-29 33.4 µM | Malme-3M > 100 µM | SF-295 64.4 µM | MDA-MB-231 47.4 µM | HL-60 > 100 µM | U-251 54.3 µM | DU-145 > 100 µM | SF-539 > 100 µM | MOLT-4 30.3 µM | SNB-75 > 100 µM | TK-10 95.5 µM | A549 50.1 µM | 786-0 50.7 µM | PC-3 70.6 µM | RPMI-8226 27.5 µM | NCI-H522 57.4 µM | SF-268 > 100 µM

CC(=O)NC(Cc1c[nH]cn1)C(=O)N1CCCC1C(N)=O (stereo not drawn)
inactive: EKVX > 100 µM | HT-29 > 100 µM | Malme-3M > 100 µM | SF-295 > 100 µM | MDA-MB-231 > 100 µM | HL-60 > 100 µM | U-251 > 100 µM | DU-145 > 100 µM | MOLT-4 > 100 µM | SNB-75 > 100 µM | TK-10 > 100 µM | OVCAR-4 > 100 µM | A549 > 100 µM | 786-0 > 100 µM | PC-3 > 100 µM | SNB-19 > 100 µM | RPMI-8226 > 100 µM | NCI-H522 > 100 µM | SF-268 > 100 µM

C/C=C/COc1cc(NC(=S)OC(C)C)ccc1Cl.C/C=C\COc1cc(NC(=S)OC(C)C)ccc1Cl
inactive: EKVX 12.6 µM | HT-29 15.3 µM | Malme-3M 15 µM | SF-295 20.2 µM | MDA-MB-231 23.8 µM | HL-60 19.3 µM | U-251 16.9 µM | DU-145 26.5 µM | SF-539 19.8 µM | MOLT-4 14.8 µM | TK-10 14.9 µM | OVCAR-4 16.8 µM | A549 15.6 µM | 786-0 17.3 µM | PC-3 16.3 µM | SNB-19 20.7 µM | RPMI-8226 70.1 µM | NCI-H522 14.1 µM | SF-268 17.7 µM

O=c1ccn(C2OC(CO)C(O)C2F)c(=O)n1Cc1ccccc1 (stereo not drawn)
inactive: EKVX > 100 µM | HT-29 > 100 µM | Malme-3M > 100 µM | SF-295 > 100 µM | MDA-MB-231 > 100 µM | HL-60 > 100 µM | U-251 > 100 µM | DU-145 > 100 µM | SF-539 > 100 µM | MOLT-4 > 100 µM | SNB-75 > 100 µM | TK-10 > 100 µM | A549 > 100 µM | 786-0 > 100 µM | PC-3 > 100 µM | SNB-19 > 100 µM | RPMI-8226 > 100 µM | NCI-H522 > 100 µM | SF-268 > 100 µM

O=C(NCCCl)NCc1ccccc1
inactive: EKVX > 100 µM | HT-29 > 100 µM | Malme-3M > 100 µM | SF-295 > 100 µM | MDA-MB-231 > 100 µM | HL-60 > 100 µM | U-251 > 100 µM | DU-145 > 100 µM | MOLT-4 > 100 µM | SNB-75 > 100 µM | OVCAR-4 > 100 µM | A549 > 100 µM | 786-0 > 100 µM | PC-3 > 100 µM | SNB-19 > 100 µM | RPMI-8226 > 100 µM | NCI-H522 > 100 µM | SF-268 > 100 µM

NC1=NC(=O)[C@H](CSCc2ccccc2)N1C(=O)OCc1ccccc1
inactive: EKVX > 100 µM | HT-29 > 100 µM | Malme-3M > 100 µM | SF-295 > 100 µM | MDA-MB-231 > 100 µM | HL-60 > 100 µM | U-251 > 100 µM | DU-145 > 100 µM | MOLT-4 > 100 µM | SNB-75 > 100 µM | TK-10 > 100 µM | OVCAR-4 > 100 µM | 786-0 > 100 µM | PC-3 > 100 µM | SNB-19 > 100 µM | NCI-H522 > 100 µM | SF-268 > 100 µM
